How the values were obtained:
μ-opioid receptor [1] = biological target: T1, μ-opioid receptor (Homo sapiens, UniProt P35372); assay: μ-opioid receptor [35S]GTPγS functional assay, HEK-293 or CHO cells; format: biochemical; conditions: for Emax: HEK-293 or CHO cells, relative to DAMGO
Procedure, shortened: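 Agonist-stimulated [35S]GTPγS binding to recombinant μ-receptor membranes (HEK-293 or CHO) with 0.20 nM [35S]GTPγS, […] and saponin, pH 7.4, 30 min at about 25 °C, then filtration and scintillation counting. EC50 from sigmoidal fits; Emax relative to DAMGO.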

μ-opioid receptor [2] = biological target: T1, μ-opioid receptor; assay: μ-opioid receptor [35S]GTPγS functional assay, U-2 OS cells; format: biochemical; design: host or cells: U-2 OS cells; conditions: for Emax: U2-OS cells, relative to DAMGO
Procedure, shortened: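 U-2 OS membranes expressing recombinant human μ-receptor (0.026 mg/mL) were incubated with compound, […], saponin and [35S]GTPγS 0.20 nM in HEPES/NaCl/MgCl2 buffer pH 7.4 for 30 min at about 25° C. Filter-bound radioactivity gave sigmoidal fits for EC50; Emax is relative to DAMGO.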

human κ opioid receptor [3] = biological target: T2, human κ opioid receptor (Homo sapiens, UniProt P41145); assay: κ-opioid receptor [35S]GTPγS functional assay, HEK-293 or CHO cells; format: biochemical; design: expressed in transfected cells; conditions: for Emax: HEK-293 or CHO cells, relative to U69,593
Protocol: Membranes from recombinant HEK-293 cells, CHO or U-2 OS cells expressing the recombinant human K opioid receptor (K) were prepared by lysing cells in ice cold hypotonic buffer (2.5 mM MgCl2, 50 mM HEPES, pH 7.4) (10 mL/10 cm dish) followed by homogenization with a tissue grinder/Teflon pestle. Functional [^35S]GTPγS binding assays were conducted as follows. K opioid receptor membrane solution was prepared by sequentially adding final concentrations of 0.026 μg/μl κ membrane protein (in-house), 10 μg/mL saponin, 3 μM GDP and 0.20 nM [^35S]GTPγS to binding buffer (100 mM NaCl, 10 mM MgCl2, 20 mM HEPES, pH 7.4) on ice. The prepared membrane solution (190 μl/well) was transferred to 96-shallow well polypropylene plates containing 10 μl of 20× concentrated stock solutions of agonist prepared in DMSO. Plates were incubated for 30 min at a temperature of about 25° C. with shaking. Reactions were terminated by rapid filtration onto 96-well Unifilter GF/B filter plates (Perkin Elmer, Shelton, Conn.) using a 96-well tissue harvester (Packard) and followed by three filtration washes with 200 μl ice-cold binding buffer (10 mM NaH2PO4, 10 mM Na2HPO4, pH 7.4). Filter plates were subsequently dried at 50° C. for 2-3 hours. Fifty μl/well scintillation cocktail (Perkin Elmer, Shelton, Conn.) was added and plates were counted in a Packard Top-Count for 1 min/well.
κ GTP EC50 is the concentration of a compound providing 50% of the maximal response for the compound at a κ receptor.
κ GTP Emax (%) is the maximal effect elicited by a compound relative to the effect elicited by U69,593.
In TABLE 2, activity response of certain Compounds of the Invention at the μ- and κ-opioid receptors using HEK-293 or CHO cells was determined as described above for functional assays.

human κ opioid receptor [4] = biological target: T2, human κ opioid receptor; assay: κ-opioid receptor [35S]GTPγS functional assay, U-2 OS cells; format: biochemical; design: expressed in transfected cells; host or cells: U-2 OS cells (in-house membranes); conditions: for Emax: U2-OS cells, relative to U69,593
Procedure, shortened: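 Membranes from U-2 OS cells expressing human κ receptor (0.026 μg/μl protein) were incubated with agonist, 10 μg/mL saponin, 3 μM GDP and 0.20 nM [35S]GTPγS in pH 7.4 HEPES buffer for 30 min at about 25 °C. Bound radioactivity was measured after filtration. EC50 was taken at half-maximal response; Emax is relative to U69,593.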

μ-opioid receptor [5] = biological target: T1, μ-opioid receptor; assay: μ-opioid receptor radioligand ([3H]-diprenorphine) dose-displacement binding assay, HEK-293 or CHO cells
Protocol: Radioligand dose-displacement binding assays for μ-opioid receptors used 0.3 nM [^3H]-diprenorphine (Perkin Elmer, Shelton, Conn.), with […] membrane protein/well in a final volume of 500 μl binding buffer (10 mM MgCl2, 1 mM EDTA, 5% DMSO, 50 mM HEPES, pH 7.4). Reactions were carried out in the absence or presence of increasing concentrations of unlabeled naloxone. All reactions were conducted in 96-deep well polypropylene plates for 2 hr at room temperature. Binding reactions were terminated by rapid filtration onto 96-well Unifilter GF/C filter plates (Perkin Elmer, Shelton, Conn.), presoaked in 0.5% polyethylenimine using a 96-well tissue harvester (Perkin Elmer, Shelton, Conn.) followed by performing three filtration washes with 500 μl of ice-cold binding buffer. Filter plates were subsequently dried at 50° C. for 2-3 hours. BetaScint scintillation cocktail (Perkin Elmer, Shelton, Conn.) was added (50 l/well), and plates were counted using a Packard Top-Count for 1 min/well. The data were analyzed using the one-site competition curve fitting functions in GraphPad PRISM™ v. 3.0 or higher (San Diego, Calif.), or an in-house function for one-site competition curve-fitting.
(§1) In TABLE 1, binding affinity of certain Compounds of the Invention to the μ-, and κ-opioid receptors in HEK-293 or CHO cells was determined as described above.

human κ opioid receptor [6] = biological target: T2, human κ opioid receptor; assay: κ-opioid receptor radioligand ([3H]-U69,593) dose-displacement binding assay, HEK-293 or CHO cells; design: expressed in transfected cells; host or cells: HEK-293 cells (in-house prep)
Protocol: Membranes from recombinant HEK-293 cells expressing the human K opioid receptor (cloned in house) were prepared by lysing cells in ice cold hypotonic buffer (2.5 mM MgCl2, 50 mM HEPES, pH 7.4) (10 mL/10 cm dish) followed by homogenization with a tissue grinder/Teflon pestle. Membranes were collected by centrifugation at 30,000×g for 15 min at 4° C. and pellets were resuspended in hypotonic buffer to a final concentration of 1-3 mg/mL. Protein concentrations were determined using the BioRad protein assay reagent with bovine serum albumen as standard. Aliquots of κ receptor membranes were stored at −80° C.
Radioligand dose displacement assays used 0.4 nM [^3H]-U69,593 (GE Healthcare, Piscataway, N.J.; 40 Ci/mmole) with 15 μg membrane protein (recombinant K opioid receptor expressed in HEK 293 cells; in-house prep) in a final volume of 200 μl binding buffer (5% DMSO, 50 mM Trizma base, pH 7.4). Non-specific binding was determined in the presence of 10 μM unlabeled naloxone or U69,593. All reactions were performed in 96-well polypropylene plates for 1 hr at a temperature of about 25° C. Binding reactions were terminated by rapid filtration onto 96-well Unifilter GF/C filter plates (Perkin Elmer, Shelton, Conn.) presoaked in 0.5% polyethylenimine (Sigma). Harvesting was performed using a 96-well tissue harvester (Perkin Elmer, Shelton, Conn.) followed by five filtration washes with 200 μl ice-cold binding buffer. Filter plates were subsequently dried at 50° C. for 1-2 hours. Fifty μl/well scintillation cocktail (Perkin Elmer, Shelton, Conn.) was added and plates were counted in a Packard Top-Count for 1 min/well.
as §1

T2 sequence (P41145 whole entry): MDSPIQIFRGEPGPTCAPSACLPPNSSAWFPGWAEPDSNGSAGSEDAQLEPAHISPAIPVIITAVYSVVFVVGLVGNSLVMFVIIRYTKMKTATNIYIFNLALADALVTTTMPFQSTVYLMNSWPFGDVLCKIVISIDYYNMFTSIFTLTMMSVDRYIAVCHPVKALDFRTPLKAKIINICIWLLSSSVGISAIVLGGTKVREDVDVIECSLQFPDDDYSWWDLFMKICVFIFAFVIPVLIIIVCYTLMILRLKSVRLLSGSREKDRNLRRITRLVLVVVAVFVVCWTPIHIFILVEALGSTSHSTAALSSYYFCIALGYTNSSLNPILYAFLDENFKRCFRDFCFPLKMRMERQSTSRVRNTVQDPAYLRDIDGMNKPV
T1 sequence (P35372 whole entry, species assumed): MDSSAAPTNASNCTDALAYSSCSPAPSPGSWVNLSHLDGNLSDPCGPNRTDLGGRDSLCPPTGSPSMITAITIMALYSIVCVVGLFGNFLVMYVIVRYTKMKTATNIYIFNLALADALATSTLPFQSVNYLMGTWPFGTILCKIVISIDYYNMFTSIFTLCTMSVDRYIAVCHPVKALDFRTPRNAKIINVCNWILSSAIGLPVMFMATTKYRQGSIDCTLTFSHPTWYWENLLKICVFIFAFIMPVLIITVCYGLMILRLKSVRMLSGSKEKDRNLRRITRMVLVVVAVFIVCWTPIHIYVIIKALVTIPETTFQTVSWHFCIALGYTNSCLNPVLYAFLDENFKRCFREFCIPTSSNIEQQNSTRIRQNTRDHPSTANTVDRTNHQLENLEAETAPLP

SMILES	EC50 (μ-opioid receptor [1]) [nM]	Emax (μ-opioid receptor [1]) [%]	EC50 (μ-opioid receptor [2]) [nM]	Emax (μ-opioid receptor [2]) [%]	EC50 (human κ opioid receptor [3]) [nM]	Emax (human κ opioid receptor [3]) [%]	EC50 (human κ opioid receptor [4]) [nM]	Emax (human κ opioid receptor [4]) [%]	Ki (μ-opioid receptor [5]) [nM]	Ki (human κ opioid receptor [6]) [nM]
CC(C)CN[C@@H]1C[C@@]2(O)[C@H]3Cc4ccc(O)cc4[C@@]2(CCN3CC2CC2)C[C@@H]1O [Compound 34, (4bR,6S,7R,8aS,9R)-11-(cyclopropylmethyl)-7-(isobutylamino)-5,6,7,8,9,10-hexahydro-8aH-9,4b-(epiminoethano)phenanthrene-3,6,8a-triol]	> 20000	1	3.84 ± 1.53	20.3 ± 1.76	0.55 ± 0.23	32 ± 1.35	0.81 ± 0.12	71 ± 1.53	–	–
CC(C)C(=O)N[C@H]1C[C@@]2(O)[C@H]3Cc4ccc(O)cc4[C@@]2(CCN3CC2CC2)CC1O (stereo partly drawn) [Compound 50, N-((4bR,7S,8aS,9R)-11-(cyclopropylmethyl)-3,6,8a-trihydroxy-6,7,8,8a,9,10-hexahydro-5H-9,4b-(epiminoethano)phenanthren-7-yl)isobutyramide]	> 20000	1	113 ± 60.8	12.8 ± 0.85	29.2 ± 2.21	45.7 ± 2.19	47.3 ± 3.7	91.7 ± 1.33	–	–
CC(=O)N[C@H]1C[C@@]2(O)[C@H]3Cc4ccc(O)cc4[C@@]2(CCN3CC2CC2)C[C@H]1O [Compound 55, N-((4bR,6R,7S,8aS,9R)-11-(cyclopropylmethyl)-3,6,8a-trihydroxy-6,7,8,8a,9,10-hexahydro-5H-9,4b-(epiminoethano)phenanthren-7-yl)acetamide]	> 20000	1	> 20000	4	203 ± 20.2	13.3 ± 0.88	194 ± 54.4	77.7 ± 5.49	201 ± 62.1	54.8 ± 8.83
CCC(=O)N[C@H]1C[C@@]2(O)[C@H]3Cc4ccc(O)cc4[C@@]2(CCN3CC2CC2)C[C@H]1O [Compound 56, N-((4bR,6R,7S,8aS,9R)-11-(cyclopropylmethyl)-3,6,8a-trihydroxy-6,7,8,8a,9,10-hexahydro-5H-9,4b-(epiminoethano)phenanthren-7-yl)propionamide]	> 20000	1	95 ± 16.4	19.3 ± 1.45	71.8 ± 8.76	53 ± 0.58	29.3 ± 4.34	105 ± 3.38	54.2 ± 12.5	7.19 ± 0.87
CCC(=O)N[C@H]1C[C@@]2(O)[C@H]3Cc4ccc(O)cc4[C@@]2(CCN3CC2CC2)C[C@@H]1O [Compound 57, N-((4bR,6S,7S,8aS,9R)-11-(cyclopropylmethyl)-3,6,8a-trihydroxy-6,7,8,8a,9,10-hexahydro-5H-9,4b-(epiminoethano)phenanthren-7-yl)propionamide]	> 20000	1.5	77.7 ± 10.3	9 ± 0.58	26.1 ± 6.87	37.2 ± 3.07	33.1 ± 3.53	113 ± 5.86	44.9 ± 7.71	16.7 ± 2.61
COc1ccc2c(c1)[C@]13CCN(CC4CC4)[C@H](C2)[C@]1(O)CC[C@@H](CC(=O)O)C3 [Compound 9, 2-((4bS,6R,8aS,9R)-11-(cyclopropylmethyl)-8a-hydroxy-3-methoxy-6,7,8,8a,9,10-hexahydro-5H-9,4b-(epiminoethano)phenanthren-6-yl)acetic acid]	–	–	574 ± 87.2	36.3 ± 0.88	597 ± 163	–	–	–	–	597 ± 163
CC(C)CCCC(=O)N[C@H]1C[C@@]2(O)[C@H]3Cc4ccc(O)cc4[C@@]2(CCN3CC2CC2)CC1O (stereo partly drawn) [Compound 63, N-((4bR,7S,8aS,9R)-11-(cyclopropylmethyl)-3,6,8a-trihydroxy-6,7,8,8a,9,10-hexahydro-5H-9,4b-(epiminoethano)phenanthren-7-yl)-5-methylhexanamide]	81.2 ± 8.25	23.3 ± 1.33	63.2 ± 8.31	58.7 ± 1.33	23 ± 4.32	21.2 ± 0.44	38.8 ± 7.82	84.3 ± 1.67	–	11.5 ± 0.97
COc1ccc2c(c1)[C@]13CCN(CC4CC4)[C@H](C2)[C@]1(O)CC[C@H](O)C3 [Compound 4, (4bR,6S,8aS,9R)-11-(cyclopropylmethyl)-3-methoxy-5,6,7,8,9,10-hexahydro-8aH-9,4b-(epiminoethano)phenanthrene-6,8a-diol]	6140	33.7 ± 2.96	–	–	7860	55.8 ± 5.88	–	–	4590 ± 356	172 ± 12.8
CN(C)[C@H]1CC[C@@]2(O)[C@H]3Cc4ccc(O)cc4[C@@]2(CCN3CC2CC2)C1 [Compound 10, (4bR,6S,8aS,9R)-11-(cyclopropylmethyl)-6-(dimethylamino)-5,6,7,8,9,10-hexahydro-8aH-9,4b-(epiminoethano)phenanthrene-3,8a-diol]	> 20000	2.5	4.69 ± 0.74	33 ± 1.15	–	–	0.79 ± 0.07	101 ± 6.23	3.84 ± 1.36	0.057 ± 0.01
N=C(N)Nc1ccc(N[C@@H]2CC[C@@]3(O)[C@H]4Cc5ccc(O)cc5[C@@]3(CCN4CC3CC3)C2)cc1 [Compound 24, 1-(4-(((4bR,6R,8aS,9R)-11-(cyclopropylmethyl)-3,8a-dihydroxy-6,7,8,8a,9,10-hexahydro-5H-9,4b-(epiminoethano)phenanthren-6-yl)amino)phenyl)guanidine]	> 20000	4.33 ± 1.45	8.14 ± 0.94	55.3 ± 2.91	–	–	2.91 ± 0.18	104 ± 4.04	8.42 ± 2.88	0.24 ± 0.021
